Tests used:
[1] = system: IL-2 release in Jurkat T cell; experiment: Inhibition of IL-2 release in Jurkat T cell (ELISA, anti-CD3/anti-CD28 stimulation); format: cell-based; conditions: Homo sapiens; 10 μM BTP2 control; anti-CD3 and anti-CD28 stimulated Jurkat T cell; 72 hours; read-out: Inhibition rate on IL-2 release (%)
Description: In order to determine the anti-immunological activity of inventive extract, following inhibition test of cytokine release in Jukrat T cell was performed according to the procedure disclosed in the literature (ARTHRITIS & RHEUMATISM Vol. 52, No. 9, September 2005, pp 2730-2739).
ELISA (Enzyme-linked immunosorbent assay) was performed to determine the release of IL-2 in Jukrat T cell.
Jukrat T cell (TIB-152, American Type Culture Collection(ATCC)) was inoculated into 96 well plates (2×10^5 cells/well) and stimulated with anti-CD3 and anti-CD 28.
In order to determine the inhibition effect on the IL-2 release of T cell of inventive extract, the test samples, i.e., the extract disclosed in Comparative Examples and Examples, were inoculated into the well plate to be 100 μg/mL with the stimuli of anti-CD3 and anti-CD 28.
10 μM BTP2([N-{4-[3,5-bis(Trifluoromethyl)-1H-pyrazol-1-yl]phenyl}-4-methyl-1,2,3-thiadiazole-5-carboxamide], 203890-M, Calbiochem) was used as a control group. […]
The release of cytokines was analyzed by IL-2 specifically reacting ELISA kit (BGK60568, Peprotech Inc. NJ, USA) and the content of IL-2 was determined according to the instruction manual of manufacture.

CD4+ T cell = experiment: Inhibition of CD4+ T cell proliferation (CFSE, flow cytometry, anti-CD3/anti-CD28 stimulation); format: cell-based; conditions: Homo sapiens; 10 μM BTP2 control; anti-CD3 and anti-CD28 stimulated CD4+ T cell; 72 hours; read-out: Inhibition rate on T cell proliferation (%)
Description: In order to determine the anti-immunological activity of inventive extract, following inhibition test of proliferation of T cell isolated from human blood was performed according to the procedure disclosed in the literature (J Immunol Jul. 15, 2002, 169 (2) 802-808).
In order to evaluate the anti-immunological activity of inventive extract, PBMC(peripheral blood mononuclear cell) and T cell which had been used in the various immunological analysis, were prepared from human blood using Fiicoll (GE17-5442-02, GE Healthcare) according to the previous literature (BIOPRESERVATION AND BIOBANKING, Volume 14, Number 5, 2016).
CD4+ T cell was carefully isolated from the isolated PBMC using by T cell isolation kit (130-096-533, Miltenyi biotec.) according to the manufacture's manual instruction.
The anti-immunological effect on T cell was evaluated by the inhibition effect on the proliferation of CD4+ T cell. […]
The T cell treated with test sample was incubated at 37° C. for 72 hours in 5% CO2 incubator (MCO-18AC, Panasonic) and then the cell was collected to be analyzed using Flow cytometry (BD LSRFortessa, BD Biosciences).

Question: For Cc1nnsc1C(=O)Nc1ccc(-n2nc(C(F)(F)F)cc2C(F)(F)F)cc1 [BTP2, N-{4-[3,5-bis(Trifluoromethyl)-1H-pyrazol-1-yl]phenyl}-4-methyl-1,2,3-thiadiazole-5-carboxamide], which inhibition at 10 µM [1] is on record?
Answer: 90.3 ± 0.552%

Question: What about the inhibition at 10 µM (CD4+ T cell) of the same molecule?
Answer: 98.84 ± 0.0006%

Source: patent publication US20230381261A1, “A Purified Extract Isolated from Agrimonia Coreana Nakai Containing Abundant Amount of Active Ingredient, the Preparation Thereof, the Composition Comprising the Same as an Active Ingredient for Preventing or Treating Inflammation, Allergy and Atopic Dermatitis and the Use Thereof” (priority 2020, published 2023)
